Values of other authors in patent US11077086B2, “Solid dosage form composition for buccal or sublingual administration of cannabinoids” (PHARMACEUTICAL PRODUCTIONS, INC., priority 2014, dated 2021).

Tested on: cannabinoid receptor

## C=C(C)[C@@H]1CCC(C)=C[C@H]1c1c(O)cc(CCCCC)cc1O [cannabidiol (CBD), cannabidiol]
  affinity for the cannabinoid receptor: do not have significant affinity
